Experimental data reported in paper PMC5813016 (Nature Communications, 2018).
“And” between values parts separate entries of the source, which are not always exact repeats. Identical values can stand only once.

Legend:
human D1R S107A mutant = assay: cAMP assay, D1R mutant S107A; conditions: relative to wild-type D1R; each table line is one experiment (Experiment # 1-6)
human D1R I117A mutant = assay: cAMP assay, D1R mutant I117A; conditions: relative to wild-type D1R; each table line is one experiment (Experiment # 1-6)
human D1R K81R mutant = assay: cAMP assay, D1R mutant K81R; conditions: relative to wild-type D1R; each table line is one experiment (Experiment # 1-6)
[1] = Rat pharmacokinetic studies; format: in vivo, Wistar Hannover rat; conditions: for plasma concentration profile after oral administration: compared with SKF-38393; for clearance / Vd / bioavailability / half-life: male, Wistar Hannover, plasma; for clearance / Vd: iv; for Vd: read-out: Vdss; for bioavailability: oral bioavailability; for half-life: read-out: t½ (converted)
Description: Rat pharmacokinetic studies were conducted at BioDuro, Pharmaceutical Product Development, Inc. (Shanghai, China). Wistar Hannover rats (227–293 gram weight) were obtained from Vital River Laboratories (China). All animal studies were conducted in accordance with the Pfizer Institutional Animal Care and Use Committee (Groton, CT), using protocols approved by Pfizer PDM′s Global BA Committee (2009). Jugular vein-cannulated male Wistar Hanover rats were maintained on a 12 h light/dark cycle for a minimum of three days in a temperature-controlled and humidity-controlled environment with free access to food and water. Individual animals (n = 2 or 3 per dose/route) were administered a single dose of compound by either intravenous injection via tail vein or oral gavage based on body weight. […] The PF-6142 intravenous dose (1 mg/kg) was formulated in saline acidified with three molar equivalents of 1 N hydrochloric acid and the PF-6142 oral dose (5 mg/kg) was formulated in 0.5% methylcellulose. […] Formulations were agitated until all of the test article was dissolved. […] From each rat, serial blood samples were collected via jugular vein cannula prior to dose administration and at the following time points post-dose: 0.033 (i.v. only), 0.083, 0.25, 0.5, 1, 2, 4, 7, and 24 h. […] All blood samples were placed on wet ice until centrifugation. Following centrifugation, the plasma was transferred to polypropylene tubes and stored frozen at either −20 °C to −80 °C until analysis. Urine was collected from all intravenous-dosed rats into collection tubes from the collection intervals of 0–7 h and 7–24 h post-dose. […] All urine samples were stored at −80 °C until analysis. All samples were processed for quantitation of compound concentrations using protein precipitation methodology followed by analysis using liquid chromatography-tandem mass spectrometry (LC-MS/MS). […] The pharmacokinetic parameters (including those in Supplementary Table 3) were computed by non-compartmental analysis[61] using Watson Bioanalytical LIMS version 7.4 (Thermo Fischer Scientific, CA).

human D1R S198A mutant = assay: cAMP assay, D1R mutant S198A; conditions: relative to wild-type D1R; each table line is one experiment (Experiment # 1-6)
human D1R Y194F mutant = assay: cAMP assay, D1R mutant Y194F; conditions: relative to wild-type D1R; each table line is one experiment (Experiment # 1-6)

Compound | fold shift of cAMP functional potency, S107A (EC50 mutant/ EC50 WT) (human D1R S107A mutant) | fold shift of cAMP functional potency, I117A (EC50 mutant/ EC50 WT) (human D1R I117A mutant) | fold shift of cAMP functional potency, K81R (EC50 mutant/ EC50 WT) (human D1R K81R mutant) | plasma concentration profile after oral administration [1] | clearance [1] [mL/min/kg] | Vd [1] [L/kg] | bioavailability [1] [%] | half-life [1] [min] | fold shift of cAMP functional potency, S198A (EC50 mutant/ EC50 WT) (human D1R S198A mutant) | fold shift of cAMP functional potency, Y194F (EC50 mutant/ EC50 WT) (human D1R Y194F mutant)
Cc1cc(Oc2cccc(O)c2O)ccc1-c1c(C)ncnc1C [PF-1437] | 1.2 | 15.2 | 0.4 |  |  |  |  |  |  | 
Cc1n[nH]c(=O)c(C)c1-c1ccc(Oc2nccc3occc23)cc1F [PF-2334] |  |  |  | more sustained plasma concentration profiles | 20.8 | 1.2 | 57.2 | 48 |  | 
Cc1cc(Oc2nccc3occc23)ccc1-c1c(C)ncc2nccn12 [PF-6142] | 2.3 | 9.8 | 2.7 | more sustained plasma concentration profiles | 42.5 | 2.4 | 85.4 | 66 | 6.0 and 7.0 and 6.4 and 7.5 | 
Cc1cc(Oc2nccc3occc23)ccc1-c1c(C)ncnc1C [PF-8871] |  |  |  |  |  |  |  |  |  | 1.3
